28 compounds from EP1953147A1, “HETEROCYCLIC COMPOUND AND MEDICINAL APPLICATION THEREOF” (priority 2005, dated 2007) can be followed below.

SMILES strings stand for the structures. pIC50: −log10 of the molar value.

For this assay, the system named is ΔG/SEAP/HCV E1E2. The experiment in a line: Effect of test substance on cell infection with HCV pseudotype virus (SEAP reporter assay in HepG2 cells). The note with it: Hepatitis C virus. The class given is cell-based.
Consider `COc1cc(OC)cc(-c2nn(-c3cc(NCCO)ccc3C(F)(F)F)c(=O)c3c2CCC3)c1` [Example 91, 4-(3,5-dimethoxy-phenyl)-2-[5-(2-hydroxy-ethylamino)-2-trifluoromethyl-phenyl]-2,5,6,7-tetrahydro-cyclopenta[d]pyridazin-1-one], for which the pIC50 is more than 7.00.

On to `O=C(O)c1ccc(-c2nn(-c3cc(N4CC[C@H](O)C4)ccc3C(F)(F)F)c(=O)c3c2CCC3)cc1` [Example 80, 4-{3-[5-((S)-3-hydroxy-pyrrolidin-1-yl)-2-trifluoromethyl-phenyl]-4-oxo-4,5,6,7-tetrahydro-3H-cyclopenta[d]pyridazin-1-yl}-benzoic acid], for which the pIC50 is 5.00 to 7.00.

In turn, `COc1cc(OC)cc(-c2nn(-c3cc(NCCC(=O)O)ccc3C(F)(F)F)c(=O)c3c2CCC3)c1` [Example 122, 3-{3-[4-(3,5-dimethoxy-phenyl)-1-oxo-1,5,6,7-tetrahydro-cyclopenta[d]pyridazin-2-yl]-4-trifluoromethyl-phenylamino}-propionic acid] gave a pIC50 of more than 7.00.

As to `O=c1c2c(c(C3=CCCC3)nn1-c1cc(N3CC[C@H](O)C3)ccc1C(F)(F)F)CCC2` [Example 1-18, 4-(cyclopent-1-enyl)-2-[5-((S)-3-hydroxy-pyrrolidin-1-yl)-2-trifluoromethyl-phenyl]-2,5,6,7-tetrahydro-cyclopenta[d]pyridazin-1-one], the negative-log IC50 (pIC50) was 5.00 to 7.00.

In turn, `COc1cc(OC)cc(-c2nn(-c3cc(NC(=O)CO)ccc3C(F)(F)F)c(=O)c3c2CCC3)c1` [Example 83, N-{3-[4-(3,5-dimethoxy-phenyl)-1-oxo-1,5,6,7-tetrahydro-cyclopenta[d]pyridazin-2-yl]-4-trifluoromethyl-phenyl}-2-hydroxy-acetamide] gave a pIC50 of more than 7.00.

For `O=c1c2c(c(-c3ccc(F)cc3)nn1-c1cc(N3CC[C@H](O)C3)ccc1C(F)(F)F)CCC2` [Example 76, 4-(4-fluoro-phenyl)-2-[5-((S)-3-hydroxy-pyrrolidin-1-yl)-2-trifluoromethyl-phenyl]-2,5,6,7-tetrahydro-cyclopenta[d]pyridazin-1-one], the negative logarithm of the IC50 (pIC50) is more than 7.00.

The compound `O=c1c2c(c(-c3cccc(Br)c3)nn1-c1cc(N3CC[C@H](O)C3)ccc1C(F)(F)F)CCC2` [Example 73, 4-(3-bromo-phenyl)-2-[5-((S)-3-hydroxy-pyrrolidin-1-yl)-2-trifluoromethyl-phenyl]-2,5,6,7-tetrahydro-cyclopenta[d]pyridazin-1-one] gave a pIC50 of more than 7.00.

The compound `COc1cc(OC)cc(-c2nn(-c3cc(NCCc4ccccc4)ccc3C(F)(F)F)c(=O)c3c2CCC3)c1` [Example 136, 4-(3,5-dimethoxy-phenyl)-2-(5-phenethylamino-2-trifluoromethyl-phenyl)-2,5,6,7-tetrahydro-cyclopenta[d]pyridazin-1-one] gave a pIC50 of more than 7.00.

`CNc1ccc(C(F)(F)F)c(-n2nc(-c3cc(OC)cc(OC)c3)c3c(c2=O)CCC3)c1` [Example 82, 4-(3,5-dimethoxy-phenyl)-2-(5-methylamino-2-trifluoromethyl-phenyl)-2,5,6,7-tetrahydro-cyclopenta[d]pyridazin-1-one]: the pIC50 was more than 7.00.

Compound `CCN1CCc2c(-c3cc(OC)cc(OC)c3)nn(-c3cc(N4CC[C@H](O)C4)ccc3C(F)(F)F)c(=O)c21` [Example 55, 4-(3,5-dimethoxy-phenyl)-1-ethyl-6-[5-((S)-3-hydroxy-pyrrolidin-1-yl)-2-trifluoromethyl-phenyl]-1,2,3,6-tetrahydro-pyrrolo[2,3-d]pyridazin-7-one] showed a pIC50 of more than 7.00.

On to `CNC(=O)c1ccc(C(F)(F)F)c(-n2nc(-c3cc(OC)cc(OC)c3)c3c(c2=O)CCC3)c1` [Example 1-11, 3-[4-(3,5-dimethoxy-phenyl)-1-oxo-1,5,6,7-tetrahydro-cyclopenta[d]pyridazin-2-yl]-N-methyl-4-trifluoromethyl-benzamide], for which the pIC50 was more than 7.00.

`COc1cc(OC)cc(-c2nn(-c3cc(N4CC[C@H](O)C4)ccc3C(F)(F)F)c(=O)c3c2CCN3CC(=O)NCCNC(C)=O)c1` [Example 39, N-(2-acetylamino-ethyl)-2-{4-(3,5-dimethoxy-phenyl)-6-[5-((S)-3-hydroxy-pyrrolidin-1-yl)-2-trifluoromethyl-phenyl]-7-oxo-2,3,6,7-tetrahydro-pyrrolo[2,3-d]pyridazin-1-yl}-acetamide] showed a pIC50 of more than 7.00.

Consider `COc1cc(OC)cc(-c2nn(-c3cc(NCCCC(=O)N(C)C)ccc3C(F)(F)F)c(=O)c3c2CCC3)c1` [Example 154, 4-{3-[4-(3,5-dimethoxy-phenyl)-1-oxo-1,5,6,7-tetrahydro-cyclopenta[d]pyridazin-2-yl]-4-trifluoromethyl-phenylamino}-N,N-dimethyl-butyramide], for which the pIC50 was more than 7.00.

`CCC(O)CN1CCc2c(-c3cc(OC)cc(OC)c3)nn(-c3cc(N4CC[C@H](O)C4)ccc3C(F)(F)F)c(=O)c21` (stereo partly drawn) [Example 30, 4-(3,5-dimethoxy-phenyl)-1-(2-hydroxy-butyl)-6-[5-((S)-3-hydroxy-pyrrolidin-1-yl)-2-trifluoromethylphenyl]-1,2,3,6-tetrahydro-pyrrolo[2,3-d]pyridazin-7-one]: the pIC50 is more than 7.00.

`CCCCNC(=O)CN1CCc2c(-c3cc(OC)cc(OC)c3)nn(-c3cc(N4CC[C@H](O)C4)ccc3C(F)(F)F)c(=O)c21` [Example 34, N-butyl-2-{4-(3,5-dimethoxy-phenyl)-6-[5-((S)-3-hydroxy-pyrrolidin-1-yl)-2-trifluoromethyl-phenyl]-7-oxo-2,3,6,7-tetrahydro-pyrrolo[2,3-d]pyridazin-1-yl}-acetamide] showed a pIC50 of more than 7.00.

The compound `CCCN(C)c1ccc(C(F)(F)F)c(-n2nc(-c3cc(OC)cc(OC)c3)c3c(c2=O)CCC3)c1` [Example 101, 4-(3,5-dimethoxy-phenyl)-2-[5-(methyl-propylamino)-2-trifluoromethyl-phenyl]-2,5,6,7-tetrahydro-cyclopenta[d]pyridazin-1-one] gave a pIC50 of 5.00 to 7.00.

In turn, `O=c1c2c(c(C3CCCC3)nn1-c1cc(N3CC[C@H](O)C3)ccc1C(F)(F)F)CCC2` [Example 1-19, 4-cyclopentyl-2-[5-((S)-3-hydroxy-pyrrolidin-1-yl)-2-trifluoromethyl-phenyl]-2,5,6,7-tetrahydro-cyclopenta[d]pyridazin-1-one] had a negative-log IC50 (pIC50) of 5.00 to 7.00.

As for `COc1cc(OC)cc(-c2nn(-c3cc(N4CC[C@H](O)C4)ccc3C(F)(F)F)c(=O)c3c2CCN3CC(=O)O)c1` [Example 27, {4-(3,5-dimethoxy-phenyl)-6-[5-((S)-3-hydroxy-pyrrolidin-1-yl)-2-trifluoromethyl-phenyl]-7-oxo-2,3,6,7-tetrahydro-pyrrolo[2,3-d]pyridazin-1-yl}-acetic acid], the negative logarithm of the IC50 (pIC50) was more than 7.00.

On to `COc1cc(OC)cc(-c2nn(-c3cc(-c4cccnn4)ccc3C(F)(F)F)c(=O)c3c2CCN3)c1` [Example 17, 4-(3,5-dimethoxy-phenyl)-6-(5-pyridazin-3-yl-2-trifluoromethyl-phenyl)-1,2,3,6-tetrahydro-pyrrolo[2,3-d]pyridazin-7-one], for which the pIC50 is more than 7.00.

For `O=c1c2c(c(-c3ccccc3Br)nn1-c1cc(N3CC[C@H](O)C3)ccc1C(F)(F)F)CCC2` [Example 104, 4-(2-bromo-phenyl)-2-[5-((S)-3-hydroxy-pyrrolidin-1-yl)-2-trifluoromethyl-phenyl]-2,5,6,7-tetrahydro-cyclopenta[d]pyridazin-1-one], the pIC50 is 5.00 to 7.00.

The compound `COc1cc(OC)cc(-c2nn(-c3cc(N4CCC(O)C4)ccc3C(F)(F)F)c(=O)c3c2CCN3)c1` (stereo not shown) [Example 18, 4-(3,5-dimethoxyphenyl)-6-[5-(3-hydroxy-pyrrolidin-1-yl)-2-trifluoromethyl-phenyl]-1,2,3,6-tetrahydro-pyrrolo[2,3-d]pyridazin-7-one] gave a pIC50 of more than 7.00.

For the compound `O=c1c2c(c(-c3ccncc3)nn1-c1cc(N3CC[C@H](O)C3)ccc1C(F)(F)F)CCC2` [Example 95, 2-[5-((S)-3-hydroxy-pyrrolidin-1-yl)-2-trifluoromethyl-phenyl]-4-pyridin-4-yl-2,5,6,7-tetrahydro-cyclopenta[d]pyridazin-1-one], the negative logarithm of the IC50 (pIC50) was 5.00 to 7.00.

With `COc1cc(OC)cc(-c2nn(-c3cc(N4CC[C@H](O)C4)ccc3C(F)(F)F)c(=O)c3c2OCC3)c1` [Example 1-35, 7-(3,5-dimethoxy-phenyl)-5-[5-((S)-3-hydroxy-pyrrolidin-1-yl)-2-trifluoromethyl-phenyl]-3,5-dihydro-2H-furo[2,3-d]pyridazin-4-one], the pIC50 was more than 7.00.

As to `Cc1cc(-c2cnco2)cc(-c2nn(-c3cc(N4CC[C@H](O)C4)ccc3C(F)(F)F)c(=O)c3c2CC(C)(C)C3)c1` [Example 6, 2-[5-((S)-3-hydroxy-pyrrolidin-1-yl)-2-trifluoromethyl-phenyl]-6,6-dimethyl-4-(3-methyl-5-oxazol-5-yl-phenyl)-2,5,6,7-tetrahydro-cyclopenta[d]pyridazin-1-one], the pIC50 is more than 7.00.

In turn, `COc1cncc(-c2nn(-c3cc(N4CC[C@H](O)C4)ccc3C(F)(F)F)c(=O)c3c2CCN3C(N)=O)c1` [Example 1-29, 6-[5-((S)-3-hydroxy-pyrrolidin-1-yl)-2-trifluoromethylphenyl]-4-(5-methoxy-pyridin-3-yl)-7-oxo-2,3,6,7-tetrahydro-pyrrolo[2,3-d]pyridazine-1-carboxamide] gave a pIC50 of more than 7.00.

On to `COc1cc(C)cc(-c2nn(-c3cc(N4CC[C@H](O)C4)ccc3C(F)(F)F)c(=O)c3c2CCC3)c1` [Example 7, 2-[5-((S)-3-hydroxy-pyrrolidin-1-yl)-2-trifluoromethyl-phenyl]-4-(3-methoxy-5-methyl-phenyl)-2,5,6,7-tetrahydro-cyclopenta[d]pyridazin-1-one], for which the pIC50 was more than 7.00.

Compound `O=c1c2c(c(-c3cccs3)nn1-c1cc(N3CC[C@H](O)C3)ccc1C(F)(F)F)CCC2` [Example 1-17, 2-[5-((S)-3-hydroxy-pyrrolidin-1-yl)-2-trifluoromethylphenyl]-4-(thiophen-2-yl)-2,5,6,7-tetrahydro-cyclopenta[d]pyridazin-1-one] had a pIC50 of more than 7.00.

`CCNc1ccc(C(F)(F)F)c(-n2nc(-c3cc(OC)cc(OC)c3)c3c(c2=O)CCC3)c1` [Example 67, 4-(3,5-dimethoxy-phenyl)-2-(5-ethylamino-2-trifluoromethyl-phenyl)-2,5,6,7-tetrahydro-cyclopenta[d]pyridazin-1-one] gave a pIC50 of more than 7.00.
